Test results published in US5438052A, “Cephalosporin derivatives” (Hoffmann-La Roche Inc., priority 1991, dated 1995).
Converted amounts (≈) assume the structure as drawn. Counter-ions that a name gives are not always drawn.

How the values were obtained:
E. cloacae 908R = experiment: Minimum inhibitory concentration in vitro, agar dilution method; assay type: cell-based; settings: Enterobacter cloacae; E. cloacae 908R, agar dilution; read-out: MIC
Description: (§1) 1. Minimum Inhibitory Concentration in vitro
(§2) The activities ascertained, minimum inhibitory concentration (MIC) in μg/ml, are compiled in Table 1 hereinafter: […]

K. oxytoca 1082 = experiment: as above; assay type: cell-based; settings: Klebsiella oxytoca; K. oxytoca 1082, agar dilution; read-out: MIC
Description: as §1, §2

E. coli 25922 [1] = experiment: as above; assay type: cell-based; settings: Escherichia coli; E. coli 25922, agar dilution; read-out: MIC
Description: as §1, §2

P. aeruginosa 799/61 = experiment: as above; assay type: cell-based; settings: Pseudomonas aeruginosa; P. aeruginosa 799/61, agar dilution; read-out: MIC
Description: as §1, §2

E. cloacae P99 = experiment: as above; assay type: cell-based; settings: Enterobacter cloacae
Description: as §1, §2

C. freundii 902 = experiment: as above; assay type: cell-based; settings: Citrobacter freundii; C. freundii 902, agar dilution; read-out: MIC
Description: as §1, §2

P. aeruginosa 27853 = experiment: as above; assay type: cell-based; settings: Pseudomonas aeruginosa; P. aeruginosa 27853, agar dilution; read-out: MIC
Description: as §1, §2

P. aeruginosa BA = experiment: as above; assay type: cell-based; settings: Pseudomonas aeruginosa; P. aeruginosa BA, agar dilution; read-out: MIC
Description: as §1, §2

P. aeruginosa MK1184 = experiment: as above; assay type: cell-based; settings: Pseudomonas aeruginosa; P. aeruginosa MK1184, agar dilution; read-out: MIC
Description: as §1, §2

K. pneumoniae 418 = experiment: as above; assay type: cell-based; settings: Klebsiella pneumoniae; K. pneumoniae 418, agar dilution; read-out: MIC
Description: as §1, §2

P. aeruginosa 799/WT = experiment: as above; assay type: cell-based; settings: Pseudomonas aeruginosa; P. aeruginosa 799/WT, agar dilution; read-out: MIC
Description: as §1, §2

P. vulgaris 1028 = experiment: as above; assay type: cell-based; settings: Proteus vulgaris; P. vulgaris 1028, agar dilution; read-out: MIC
Description: as §1, §2

E. cloacae 908SSi = experiment: as above; assay type: cell-based; settings: Enterobacter cloacae; E. cloacae 908SSi, agar dilution; read-out: MIC
Description: as §1, §2

S. aureus 6538 = experiment: as above; assay type: cell-based; settings: Staphylococcus aureus; S. aureus 6538, agar dilution; read-out: MIC
Description: as §1, §2

P. mirabilis 2117 = experiment: as above; assay type: cell-based; settings: Proteus mirabilis; P. mirabilis 2117, agar dilution; read-out: MIC
Description: as §1, §2

S. marcescens 69438 = experiment: as above; assay type: cell-based; settings: Serratia marcescens; S. marcescens 69438, agar dilution; read-out: MIC
Description: as §1, §2

S. pyogenes 15 = experiment: as above; assay type: cell-based; settings: Streptococcus pyogenes; S. pyogenes 15, agar dilution; read-out: MIC
Description: as §1, §2

E. coli 25922 [2] = experiment: Experimental systemic septicaemia in the mouse; assay type: in vivo; settings: Escherichia coli, sc, 96 h; E. coli 25922, albino mice, s.c. 1 and 3 hours after infection, survival after 4 days; read-out: ED50
How it was run: (§3)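 ED50 in mg/kg s.c. is the Probit-derived dose protecting half the mice, judged on survival 4 days after i.p. challenge (about 5-100× 48 h LD50) in 16-20 g albino mice, 5 per group. Dosing was s.c. in 2% Tween 80 at 1 and 3 h, plus 5 h for P. aeruginosa.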

[3] = tested on: Pseudomonas aeruginosa BA; experiment: Experimental systemic septicaemia in the mouse; assay type: in vivo; settings: sc, 96 h, P. aeruginosa BA, albino mice, s.c. 1, 3 and 5 hours after infection, survival after 4 days, read-out: ED50
How it was run: as §3

S. aureus Schoch = experiment: Experimental systemic septicaemia in the mouse; assay type: in vivo; settings: Staphylococcus aureus, sc, 96 h; S. aureus Schoch, albino mice, s.c. 1 and 3 hours after infection, survival after 4 days; read-out: ED50
How it was run: as §3

S. pneumoniae BA = experiment: Minimum inhibitory concentration in vitro, agar dilution method; assay type: cell-based; settings: Streptococcus pneumoniae; S. pneumoniae BA, agar dilution; read-out: MIC
Description: as §1, §2

| SMILES | MIC (E. cloacae 908R) [µg/mL] | MIC (K. oxytoca 1082) [µg/mL] | MIC (E. coli 25922 [1]) [µg/mL] | MIC (P. aeruginosa 799/61) [µg/mL] | MIC (E. cloacae P99) [µg/mL] | MIC (C. freundii 902) [µg/mL] | MIC (P. aeruginosa 27853) [µg/mL] | MIC (P. aeruginosa BA) [µg/mL] | MIC (P. aeruginosa MK1184) [µg/mL] | MIC (K. pneumoniae 418) [µg/mL] | MIC (P. aeruginosa 799/WT) [µg/mL] | MIC (P. vulgaris 1028) [µg/mL] | MIC (E. cloacae 908SSi) [µg/mL] | MIC (S. aureus 6538) [µg/mL] | MIC (P. mirabilis 2117) [µg/mL] | MIC (S. marcescens 69438) [µg/mL] | MIC (S. pyogenes 15) [µg/mL] | ED50 (E. coli 25922 [2]) [mg/kg] | ED50 [3] [mg/kg] | ED50 (S. aureus Schoch) [mg/kg] | further results |
| --- | --- | --- | --- | --- | --- | --- | --- | --- | --- | --- | --- | --- | --- | --- | --- | --- | --- | --- | --- | --- | --- |
| Cc1cc(SCC2=C(C(=O)O)N3C(=O)[C@@H](NC(=O)/C(=N\OCc4ccc(O)c(O)c4)c4csc(N)n4)[C@H]3SC2)n2nc(CNS(=O)(=O)c3ccc(O)c(O)c3)nc2n1 [Example 4, (6R,7R)-7-[(Z)-2-(2-amino-4-thiazolyl)-2-[[(3,4-dihydroxybenzyl)oxy]imino]acetamido]-3-[[[2-[(3,4-dihydroxybenzenesulphonamido)methyl]-5-methyl-s-triazolo[1,5-a]pyrimidin-7-yl]thio]methyl]-8-oxo-5-thia-1-azabicyclo[4.2.0]oct-2-ene-2carboxylic acid] | 1 (≈ 1.15 µM) | 16 (≈ 18.4 µM) | < 0.1 | 0.12 (≈ 0.138 µM) | 32 (≈ 36.7 µM) | < 0.1 | 0.5 (≈ 0.574 µM) | < 0.1 | 0.25 (≈ 0.287 µM) | < 0.1 | 0.25 (≈ 0.287 µM) | 1 (≈ 1.15 µM) | 4 (≈ 4.59 µM) | 4 (≈ 4.59 µM) | 0.25 (≈ 0.287 µM) | 0.12 (≈ 0.138 µM) | 0.25 (≈ 0.287 µM) | < 0.1 | 0.12 | 3.1 |  |
| Cc1cc(SCC2=C(C(=O)O)N3C(=O)[C@@H](NC(=O)/C(=N\OC(C)(C)C(=O)NNC(=O)c4ccc(O)c(O)c4)c4csc(N)n4)[C@H]3SC2)n2nc(COC(=O)c3ccc(O)c(O)c3)nc2n1 [Example 43] | 0.12 (≈ 0.126 µM) | < 0.1 | < 0.1 | < 0.1 | 0.12 (≈ 0.126 µM) | < 0.1 | 0.25 (≈ 0.263 µM) | < 0.1 | < 0.1 | < 0.1 | < 0.1 | 0.12 (≈ 0.126 µM) | 2 (≈ 2.11 µM) | 16 (≈ 16.8 µM) | 0.12 (≈ 0.126 µM) | 0.12 (≈ 0.126 µM) | 8 (≈ 8.42 µM) | 0.05 | 0.019 | 12 | MIC (S. pneumoniae BA): 4 µg/mL (≈ 4.21 µM) |
| Cc1cc(SCC2=C(C(=O)O)N3C(=O)[C@@H](NC(=O)/C(=N\OCc4ccc(O)c(O)c4F)c4csc(N)n4)[C@H]3SC2)n2nc(CNS(=O)(=O)c3ccc(O)c(O)c3)nc2n1 [Example 5, 7-[(Z)-2-(2-amino-4-thiazolyl)-2-[[(2-fluoro-3,4-dihydroxybenzyl)oxy]imino]acetamido]-3-[[[2-[(3,4-dihydroxybenzenesulphonamido)methyl]-5-methyl-s-triazolo[1,5-a]pyrimidin-7-yl]thio]methyl]-8-oxo-5-thia-1-azabicyclo[4.2.0]oct-2-ene-2-carboxylic acid sodium salt (1:1)] | 0.25 | 0.25 | < 0.1 | < 0.1 | 4 | < 0.1 | 0.12 | 0.12 | < 0.1 | < 0.1 | < 0.1 | 0.5 | 1 | 4 | 0.25 | < 0.1 | 0.5 | < 0.1 | 0.034 | 3.1 |  |
